Data from patent publication US20260216137A1, “COMPOSITION FOR PREVENTING OR TREATING INFLAMMATORY SKIN DISEASES,CONTAINING 1H-PYRAZOLE-3-AMIDE COMPOUND DERIVATIVE” (AJOU UNIVERSITY INDUSTRY-ACADEMIC COOPERATION FOUNDATION, priority 2023, published 2026).

Legend:
Assay type in all cases: in vivo
[1] = test system: IL-1ß; experiment: Psoriasis mouse model: IL-1β expression by immunohistochemical staining; details: Compound 1 20 mg/kg; for expression level of IL-1ß in the epidermis compared to vehicle group: Aldara cream psoriasis mice, intraperitoneal daily, Compound 2 10 mg/kg, FIG. 5
Description: (§1) The hair on the backs of 7-week-old mice was removed, and then 62.5 mg of Aldara cream was applied daily for 4 days. 1% DMSO and 5% kolliphor in PBS were mixed to be injected into the vehicle intraperitoneally daily. 20 mg/kg of Compound 1, 10 mg/kg of Compound 2, and 10 mg/kg of MTx were prepared in body weight×[…], which was injected intraperitoneally daily. After injection, the mice were left for 30 minutes for sufficient suppression of cannabinoid receptor 1, applied with Aldara cream, and then sacrificed on day 5 from day 1 at which the Aldara cream was first applied, and skin tissues were made into paraffin blocks. These were evenly cut into 4 μm thick pieces, and immunochemical staining was performed.
For immunohistochemical staining, the slides were placed in a 60° C. oven for 1 hour, rinsed with xylene solution for 5 minutes, 100% EtOH for 5 minutes, 70% EtOH for 5 minutes, distilled water, and PBS, then immersed in citrate buffer, placed in a 100° C. oven for 30 minutes, and slowly cooled at room temperature for 45 minutes. After rinsing with distilled water, the slides were soaked in PBS for 5 minutes, sprayed with 0.25% TritonX-100, and left for 10 minutes to disrupt the cell membrane and allow the antibodies to penetrate. After rinsing with 0.1% Tween 20 in PBS (hereinafter referred to as PBST), hydrogen peroxide block buffer (abcam59717) was sprayed and left for 10 minutes. Afterwards, after rinsing with PBST, the slides were sprayed with 150 μl of normal blocking serum (VectastatinABC kit, PK-4001) mixed in 10 ml of PBS. The primary antibody was mixed with R.T.U animal free block and diluent (SP-5035) in 1:500, spread on the slides, and reacted in a refrigerator at 4° C. for 14 hours. After rinsing with PBST, the secondary antibody was applied for 1 hour and then HRP (VectastatinABC reagent) for 30 minutes. […]
(§2) The signals of TNF-α and IL-1B, stained brown, were quantified through immunohistochemical staining.

[2] = test system: contact dermatitis mouse model; experiment: Contact dermatitis mouse model (oxazolone on ears): symptoms of dermatitis; details: oxazolone contact dermatitis mice; intraperitoneal daily, Compound 2 20 mg/kg, Compound 1 10 mg/kg; FIG. 6
Description: (§3) After removing hair from the ears of 7-week-old mice, on the day after hair removal (day 1), oxazolone (4-ethoxymethylene-2-phenyl-2-oxazolin-5-one, cat #E0753-1G, sigma-Aldrich) was mixed in acetone and olive oil in a concentration of 2%, which was then applied to the inner and outer sides of the ears by 5 μl each. 1% DMSO and 5% kolliphor in PBS were mixed to be injected into the vehicle intraperitoneally daily. Intraperitoneal injection was conducted daily by 20 mg/kg for Compound 2 and 10 mg/kg for Compound 1 with a 30 interval for sufficient suppression of cannabinoid receptor 1 after the injection, and then the size of the ears was measured, followed by application of oxazolone (on days 1 and 6). On day 6, 1% oxazolone was prepared and applied to the inner and outer side of the ears by 5 μl each, and on day 7, the mice were sacrificed, with the ears formed into paraffin blocks and then cut into 4 μm thick pieces to be placed on slides.
The 2% oxazolone used on day 1 was finally prepared in a volume of 800 μl for 20 mice, 16 mg of oxazolone was first dissolved in 160 μl of olive oil, then 640 μl of acetone was additionally mixed, and 10 μl of the mixture was applied on both ears, 5 μl for the front and 5 μl for the back per ear. […]

[3] = test system: TNF-α; experiment: Psoriasis mouse model: TNF-α expression by immunohistochemical staining; details: Aldara cream psoriasis mice; intraperitoneal daily, Compound 1 20 mg/kg, Compound 2 10 mg/kg; FIG. 4
Description: as §1
(§4) For immunohistochemical staining, the slides were placed in a 60° C. oven for 1 hour, rinsed with xylene solution for 5 minutes, 100% EtOH for 5 minutes, 70% EtOH for 5 minutes, distilled water, and PBS, then immersed in citrate buffer, placed in a 100° C. oven for 30 minutes, and slowly cooled at room temperature for 45 minutes. After rinsing with distilled water, the slides were soaked in PBS for 5 minutes, sprayed with 0.25% TritonX-100, and left for 10 minutes to disrupt the cell membrane and allow the antibodies to penetrate. […]
as §2

[4] = test system: psoriasis mouse model; experiment: Psoriasis mouse model: skin thickness by hematoxylin/eosin staining; details: Aldara cream psoriasis mice; intraperitoneal daily, Compound 1 20 mg/kg, Compound 2 10 mg/kg; FIG. 3
Description: as §1
The slides were placed in a 60° C. oven for 1 hour, rinsed with xylene solution for 5 minutes, 100% EtOH for 5 minutes, 70% EtOH for 5 minutes, distilled water, and PBS, and then immersed in hematoxylin for 10 seconds and eosin for 3 seconds. Afterwards, they were rinsed with 70% EtOH and 100% EtOH, immersed in xylene for 20 seconds, sprayed with mounting solution, and covered with a cover glass. Each section of the skin tissue was photographed using a Leica microscope and then quantified by setting three sections per tissue as the average.

[5] = test system: IL-1B; experiment: Contact dermatitis mouse model: IL-1β expression by immunohistochemical staining; details: oxazolone contact dermatitis mice; intraperitoneal daily, Compound 2 20 mg/kg, Compound 1 10 mg/kg; FIG. 8
Description: as §4, with “penetrate. After rinsing with 0.1% Tween 20 in PBS (hereinafter referred to as PBST), hydrogen peroxide block buffer (abcam59717) was sprayed and left for 10 minutes.” for “penetrate.”
(§5) After removing hair from the ears of 7-week-old mice, on the day after hair removal (day 1), oxazolone (4-ethoxymethylene-2-phenyl-2-oxazolin-5-one, cat #E0753-1G, sigma-Aldrich) was mixed in acetone and olive oil in a concentration of 2%, which was then applied to the inner and outer sides of the ears by 5 μl each. […] Intraperitoneal injection was conducted daily by 20 mg/kg for Compound 2 and 10 mg/kg for Compound 1 with a 30 interval for sufficient suppression of cannabinoid receptor 1 after the injection, and then the size of the ears was measured, followed by application of oxazolone (on days 1 and 6). […]

[6] = test system: IL-17A; experiment: Contact dermatitis mouse model: IL-17A expression by immunohistochemical staining; details: oxazolone contact dermatitis mice; intraperitoneal daily, Compound 2 20 mg/kg, Compound 1 10 mg/kg; FIG. 9
Description: as §4, with “penetrate. After rinsing with 0.1% Tween 20 in PBS (hereinafter referred to as PBST), hydrogen peroxide block buffer (abcam59717) was sprayed and left for 10 minutes.” for “penetrate.”
as §5

[7] = test system: psoriasis mouse model; experiment: Psoriasis mouse model (Aldara cream): PASI score and spleen weight; details: Aldara cream psoriasis mice; intraperitoneal daily, Compound 1 20 mg/kg, Compound 2 10 mg/kg; FIG. 2
Description: as §1

[8] = test system: contact dermatitis mouse model; experiment: Contact dermatitis mouse model: ear skin thickness by hematoxylin/eosin staining; details: oxazolone contact dermatitis mice; intraperitoneal daily, Compound 2 20 mg/kg, Compound 1 10 mg/kg; FIG. 7
Description: as §3, with “slides. […]” for “slides.”
The slides were placed in a 60° C. oven for 1 hour, rinsed with xylene solution for 5 minutes, 100% EtOH for 5 minutes, 70% EtOH for 5 minutes, distilled water, and PBS, and then immersed in hematoxylin for 10 seconds and eosin for 3 seconds. […] Each section of skin tissue was photographed using a Leica microscope and then quantified by setting three sections per tissue as the average.

Row | SMILES | expression level of IL-1ß in the epidermis compared to vehicle group [1] | inhibitory effect on inflammatory factor expression, Compound 1 versus Compound 2 ([1]; psoriasis mice, comparison stated after the TNF-α and IL-1ß results, Compound 2 10 mg/kg intraperitoneal) | symptoms of contact dermatitis compared to vehicle group [2] | expression level of TNF-α in the epidermis compared to vehicle group [3] | thickness of the epidermis compared to vehicle group [4] | expression level of IL-1B in the epidermis compared to vehicle group [5] | expression level of IL-17A compared to vehicle group [6] | PASI score compared to vehicle group [7] | spleen weight compared to vehicle group [7] | thickness of the ear skin compared to vehicle group [8]
1 | Cc1c(C(=O)C(=O)NCCO)nn(-c2ccc(Cl)cc2Cl)c1-c1ccc(Cl)cc1 [Compound 1, 2-(5-(4-chlorophenyl)-1-(2,4-dichlorophenyl)-4-methyl-1H-pyrazol-3-yl)-N-(2-hydroxyethyl)-2-oxoacetamide] | significantly reduced | higher than that of Compound 2 | reduced | significantly reduced | significantly reduced | significantly reduced | significantly reduced | lower | decrease | significantly reduced
2 | Cc1c(/C=C/C(=O)NCc2cccc(Cl)c2)nn(-c2ccc(Cl)cc2Cl)c1-c1ccc(Cl)cc1 [Compound 2, (E)-N-(3-chlorobenzyl)-3-(5-(4-chlorophenyl)-1-(2,4-dichlorophenyl)-4-methyl-1H-pyrazol-3-yl) acrylamide] | significantly reduced |  | reduced | significantly reduced | significantly reduced | significantly reduced | significantly reduced | lower | decrease | significantly reduced
